Biological target: T1, CHRM2 (Homo sapiens, UniProt P08172)
T1 construct: purchased Promega (in-house HiBiT-GPCR construct library, NanoBRET)
T1 sequence (P08172 1-466): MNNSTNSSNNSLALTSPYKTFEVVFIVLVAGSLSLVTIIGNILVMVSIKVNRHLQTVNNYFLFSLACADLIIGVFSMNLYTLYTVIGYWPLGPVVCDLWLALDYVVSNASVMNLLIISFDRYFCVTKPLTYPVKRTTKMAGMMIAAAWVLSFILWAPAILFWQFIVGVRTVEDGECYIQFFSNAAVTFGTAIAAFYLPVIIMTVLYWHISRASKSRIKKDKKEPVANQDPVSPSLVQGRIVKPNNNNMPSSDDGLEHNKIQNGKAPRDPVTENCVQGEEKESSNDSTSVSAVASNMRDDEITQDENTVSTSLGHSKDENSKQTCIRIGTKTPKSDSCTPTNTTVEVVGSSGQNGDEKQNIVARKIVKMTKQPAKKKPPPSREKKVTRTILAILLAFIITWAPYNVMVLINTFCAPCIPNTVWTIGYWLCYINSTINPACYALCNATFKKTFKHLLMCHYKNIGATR
Assay: NanoBRET screen HiBiT-CHRM2 in HEK293
Type: binding
Procedure: Each tracer candidate was screened across the entire library of HiBiT-GPCR constructs using NanoBRET as the detection modality. As depicted in Figure 4A, the specificity of interactions was evaluated through decrease in BRET due to competitive displacement of a bound tracer by excess parental compound. Each tracer was analyzed for binding to each HiBiT-GPCR fusion in the absence and in the presence of competing parental compound. Briefly, HEK293 cells were transfected with HiBiT-GPCR constructs diluted into promoterless DNA to reduce expression and maximize translocation to the cell surface. Each tracer candidate was then screened at concentrations of 1 μM and 0.1 μM across cells expressing these fusions. Cells were treated for 1.5 h with tracer either alone or in the presence of 20 μM competing parental compound (i.e., control). BRET was measured upon addition of purified LgBiT and subsequent complementation with HiBiT genetically fused to a GPCR. The specificity of interactions was assessed through a decrease in BRET signal due to competitive displacement of the bound tracer. To further gauge the robustness of these interactions, the fold response over the control (i.e., BRETtracer/BRETcontrol) was calculated. We chose a 1.5-fold response, which translates to ≥7-fold signal over noise as the minimal threshold required to score an interaction as positive.
HiBiT-GPCR DNA constructs were diluted in 10 mM Tris pH 8 to a final concentration of 0.01 μg/μL, arrayed in 96-well plates and stored at −20 °C. For transfection, HEK293 cells were suspended in Opti-MEM (without phenol red) supplemented with 2% fetal bovine serum (Seradigm) and 100 units/mL penicillin–streptomycin (Gibco) at a final concentration of 220,000 cells/mL and dispensed into white 96-well plates at 90 μL/well. Subsequent transfections and screens were carried using an Agilent Bravo Automated Liquid Handling Platform. First, the 96-well HiBiT DNA arrays were diluted 25-fold in Opti-MEM (without serum or phenol red) to a final concentration of 0.0004 μg/μL and 20 μL of the diluted DNAs were transferred into new 96-well plates. Next, promoterless carrier DNA (1 μg/μL) was diluted 25-fold (0.04 μg/μL) and then dispensed into the diluted arrays at 20 μL/well. Following brief mixing, Viafect transfection reagent (Promega) diluted 16-fold into Opti-MEM was dispensed into the plates at 40 μL/well. After mixing by pipetting, plates were incubated for 10 min on the pipetting station deck. The DNA-transfection reagent complexes were then added to plates containing cells. To facilitate the screen, 10 μL of DNA-transfection reagent complexes were added in duplicates to the top 4 and bottom 4 rows, resulting in two identical 48-well arrays per plate. Plates with transfected cells were incubated for 18–20 h at 37 °C/5% CO2. A screen of each tracer across the entire library using two different concentrations requires duplicate plates of transfected cells. Depending on the number of tracers being screened, transfections can be scaled up using the same ratios. The next day, for each tracer, four 20× screening solutions in tracer dilution buffer (Promega) were prepared: two duplicates at final concentration of 20 μM and two duplicates at a final concentration of 2 μM. […] The four resulting solutions were diluted 4-fold in Opti-MEM without serum or phenol red to generate 5× solutions (5 µM and 0.5 µM tracer +/− 100 μM competing compound). To screen the library, a BioTek MultiFlo FX liquid dispenser was used to dispense 22.5 µL of tracer solution to the top 4 rows and 22.5 µL tracer + competing compound solution to the 4 bottom rows. Plates were briefly mixed on an orbital shaker and incubated for 1.5 h at room temperature. […] Plates were briefly mixed on an orbital shaker and incubated for 15 min to allow complementation.

Compound	NanoBRET Fold Response (CHRM2, tracer 0.1μM)	NanoBRET Fold Response (CHRM2, tracer 1μM)	also measured
CN1CCN(C2=Nc3cc(Cl)ccc3Nc3ccc(CNC(=O)CCOCCOCCOCCOCCNC(=O)CCc4ccc5n4[B-](F)(F)[N+]4=C(c6ccc[nH]6)C=CC4=C5)cc32)CC1 [Clozapine-b-2-NB590]	–	–	NanoBRET Fold Response (CHRM2, 0.1μM tracer): 1.48; NanoBRET Fold Response (CHRM2, 1μM tracer): 1.99
CN(C)CCC=C1c2ccccc2CCc2ccc(C(=O)NCCNC(=O)CCOCCOCCOCCOCCNC(=O)CCc3ccc4n3[B-](F)(F)[N+]3=C(c5ccc[nH]5)C=CC3=C4)cc21 [Amitriptyline-b-2-NB590]	–	–	NanoBRET Fold Response (tracer at 0.1μM, listed as amitriptyline-b-2-NB590): 2.20; NanoBRET Fold Response (tracer at 1μM, listed as amitriptyline-b-2-NB590): 1.55
CCOC(=O)c1cc(C#N)c(N2CCC(C(=O)NS(=O)(=O)Cc3ccccc3/C=C/C(=O)NCCNC(=O)CCc3ccc4n3[B-](F)(F)[N+]3=C(c5ccc[nH]5)C=CC3=C4)CC2)nc1C [AZD1283-1-NB590]	–	–	NanoBRET Fold Response (CHRM2, 0.1μM): 1.05; NanoBRET Fold Response (CHRM2, 1μM): 0.96
CC(C)N(CC[C@H](c1ccccc1)c1cc(CCNC(=O)CCOCCOCCOCCOCCNC(=O)CCc2ccc3n2[B-](F)(F)[N+]2=C(c4ccc[nH]4)C=CC2=C3)ccc1O)C(C)C [Tolterodine-2-NB590]	2.98	1.51	–
CC(C)N(CC[C@H](c1ccccc1)c1cc(CCNC(=O)c2ccc(CNC(=O)CCc3ccc4n3[B-](F)(F)[N+]3=C(c5ccc[nH]5)C=CC3=C4)cc2)ccc1O)C(C)C [Tolterodine-BZ-NB590]	3.84	2.14	–
O=C(CCOCCOCCOCCOCCNC(=O)CCc1ccc2n1[B-](F)(F)[N+]1=C(c3ccc[nH]3)C=CC1=C2)NCCCN1CCN(C2=Nc3ccccc3Oc3ccc(Cl)cc32)CC1 [Loxapine-a-2-NB590]	1.07	1.04	–
CN1CCN(C2=Nc3cc(Cl)ccc3N(CC(=O)NCCOCCOCCOCCOCCNC(=O)CCc3ccc4n3[B-](F)(F)[N+]3=C(c5ccc[nH]5)C=CC3=C4)c3ccccc32)CC1 [Clozapine-c-2-NB590]	–	–	NanoBRET Fold Response (CHRM2, 0.1μM tracer): 0.99; NanoBRET Fold Response (CHRM2, 1μM tracer): 0.87
CN(C)CCC=C1c2ccccc2CCc2ccc(C(=O)NCCNC(=O)CCOCCOCCOCCOCCNC(=O)CCc3ccc4n3[B-](F)(F)[N+]3=C(c5ccc[nH]5)C=CC3=C4)cc21 [Amitriptyline-a-2-NB590]	–	–	NanoBRET Fold Response (tracer at 0.1μM): 1.10; NanoBRET Fold Response (tracer at 1μM): 0.98
Cc1nc2n(c(=O)c1CCN1CCC(c3noc4cc(F)ccc34)CC1)CCCC2OC(=O)NCCOCCOCCOCCOCCNC(=O)CCc1ccc2n1[B-](F)(F)[N+]1=C(c3ccc[nH]3)C=CC1=C2 (stereo not drawn) [Risperidone-2-NB590]	1.09	1.26	–
COc1ccc2[nH]c(-c3ccc(CNC(=O)CCOCCOCCOCCOCCNC(=O)CCc4ccc5n4[B-](F)(F)[N+]4=C(c6ccc[nH]6)C=CC4=C5)cc3)c(CCNC(C)=O)c2n1 [AzomelatoninICO9-2-NB590]	–	–	NanoBRET Fold Response (0.1μM tracer): 1.08; NanoBRET Fold Response (1μM tracer): 0.86
COc1ccccc1N1CCN(CCCCN2C(=O)c3ccc(CNC(=O)CCOCCOCCOCCOCCNC(=O)CCc4ccc5n4[B-](F)(F)[N+]4=C(c6ccc[nH]6)C=CC4=C5)cc3C2=O)CC1 [NAN-190-2-NB590]	1.13	–	–
O=C(CCc1ccc2n1[B-](F)(F)[N+]1=C(c3ccc[nH]3)C=CC1=C2)NCCOCCOCCNC(=O)OCCOCCN1CCN(C2=Nc3ccccc3Sc3ccccc32)CC1 [Quetiapine-a-2-NB590]	1.56	1.75	–
O=C(CCOCCOCCOCCOCCNC(=O)CCc1ccc2n1[B-](F)(F)[N+]1=C(c3ccc[nH]3)C=CC1=C2)NCCCN1CCN(C2=Nc3cc(Cl)ccc3Nc3ccccc32)CC1 [Clozapine-a-2-NB590]	–	–	NanoBRET Fold Response (CHRM2, 0.1μM tracer): 1.50; NanoBRET Fold Response (CHRM2, 1μM tracer): 1.49
N#CN=C(NCCCOc1cccc(CN2CCCCC2)c1)NCCNC(=O)CCOCCOCCOCCOCCNC(=O)CCc1ccc2n1[B-](F)(F)[N+]1=C(c3ccc[nH]3)C=CC1=C2 [Aminopotentidine-2-NB590]	1.66	1.68	–
O=C(CCc1ccc2n1[B-](F)(F)[N+]1=C(c3ccc[nH]3)C=CC1=C2)NCc1ccc(C(=O)NCCOCCOCCNCC(O)COc2cccc3ccccc23)cc1 (stereo not drawn) [Propranolol-3-NB590]	–	–	NanoBRET Fold Response (CHRM2, 0.1μM): 1.14; NanoBRET Fold Response (CHRM2, 1μM): 1.00
O=C(CCc1ccc2n1[B-](F)(F)[N+]1=C(c3ccc[nH]3)C=CC1=C2)NCc1ccc(C(=O)NCCOCCC(=O)N[C@@H]2CC[C@@]3(O)[C@H]4Cc5ccc(O)c6c5[C@@]3(CCN4CC3CC3)[C@H]2O6)cc1 [Naltrexone-3-NB590]	0.57	1.32	–
COc1ccccc1N1CCN(CCCCN2C(=O)c3ccc(CNC(=O)CCOCCNC(=O)c4ccc(CNC(=O)CCc5ccc6n5[B-](F)(F)[N+]5=C(c7ccc[nH]7)C=CC5=C6)cc4)cc3C2=O)CC1 [NAN-190-3-NB590]	1.14	0.95	–
Cc1cc2c(s1)Nc1ccccc1N=C2N1CCN(CCCNC(=O)CCOCCOCCOCCOCCNC(=O)CCc2ccc3n2[B-](F)(F)[N+]2=C(c4ccc[nH]4)C=CC2=C3)CC1 [Olanzapine-a-2-NB590]	–	1.30	–
CCCn1c(=O)c2[nH]c(-c3ccc(OCC(=O)NCCNC(=O)CCOCCNC(=O)c4ccc(CNC(=O)CCc5ccc6n5[B-](F)(F)[N+]5=C(c7ccc[nH]7)C=CC5=C6)cc4)cc3)nc2n(CCC)c1=O [XAC-3-NB590]	1.28	2.12	–
CN(CCC=C1c2ccccc2CCc2ccccc21)C(=O)CCOCCOCCOCCOCCNC(=O)CCc1ccc2n1[B-](F)(F)[N+]1=C(c3ccc[nH]3)C=CC1=C2 [Amitriptyline-e-2-NB590]	–	–	NanoBRET Fold Response (tracer at 1μM): 1.05
COc1ccc2c(n1)c(CCNC(C)=O)cn2CCNC(=O)CCc1ccc2n1[B-](F)(F)[N+]1=C(c3ccc[nH]3)C=CC1=C2 [Azamelatonin-1-NB590]	–	–	NanoBRET Fold Response (0.1μM tracer): 0.80; NanoBRET Fold Response (1μM tracer): 1.35

From publication PMC8151276, “An Integrated Approach toward NanoBRET Tracers for Analysis of GPCR Ligand Engagement” (Molecules, 2021)
